Target: ATP-dependent translocase ABCB1 (Homo sapiens, UniProt P08183)
Experiment: TP_TRANSPORTER: transepithelial transport in Caco2 cells
Type: functional, cell-based
Conditions: caco-2

Chain of ATP-dependent translocase ABCB1 (P08183 whole entry): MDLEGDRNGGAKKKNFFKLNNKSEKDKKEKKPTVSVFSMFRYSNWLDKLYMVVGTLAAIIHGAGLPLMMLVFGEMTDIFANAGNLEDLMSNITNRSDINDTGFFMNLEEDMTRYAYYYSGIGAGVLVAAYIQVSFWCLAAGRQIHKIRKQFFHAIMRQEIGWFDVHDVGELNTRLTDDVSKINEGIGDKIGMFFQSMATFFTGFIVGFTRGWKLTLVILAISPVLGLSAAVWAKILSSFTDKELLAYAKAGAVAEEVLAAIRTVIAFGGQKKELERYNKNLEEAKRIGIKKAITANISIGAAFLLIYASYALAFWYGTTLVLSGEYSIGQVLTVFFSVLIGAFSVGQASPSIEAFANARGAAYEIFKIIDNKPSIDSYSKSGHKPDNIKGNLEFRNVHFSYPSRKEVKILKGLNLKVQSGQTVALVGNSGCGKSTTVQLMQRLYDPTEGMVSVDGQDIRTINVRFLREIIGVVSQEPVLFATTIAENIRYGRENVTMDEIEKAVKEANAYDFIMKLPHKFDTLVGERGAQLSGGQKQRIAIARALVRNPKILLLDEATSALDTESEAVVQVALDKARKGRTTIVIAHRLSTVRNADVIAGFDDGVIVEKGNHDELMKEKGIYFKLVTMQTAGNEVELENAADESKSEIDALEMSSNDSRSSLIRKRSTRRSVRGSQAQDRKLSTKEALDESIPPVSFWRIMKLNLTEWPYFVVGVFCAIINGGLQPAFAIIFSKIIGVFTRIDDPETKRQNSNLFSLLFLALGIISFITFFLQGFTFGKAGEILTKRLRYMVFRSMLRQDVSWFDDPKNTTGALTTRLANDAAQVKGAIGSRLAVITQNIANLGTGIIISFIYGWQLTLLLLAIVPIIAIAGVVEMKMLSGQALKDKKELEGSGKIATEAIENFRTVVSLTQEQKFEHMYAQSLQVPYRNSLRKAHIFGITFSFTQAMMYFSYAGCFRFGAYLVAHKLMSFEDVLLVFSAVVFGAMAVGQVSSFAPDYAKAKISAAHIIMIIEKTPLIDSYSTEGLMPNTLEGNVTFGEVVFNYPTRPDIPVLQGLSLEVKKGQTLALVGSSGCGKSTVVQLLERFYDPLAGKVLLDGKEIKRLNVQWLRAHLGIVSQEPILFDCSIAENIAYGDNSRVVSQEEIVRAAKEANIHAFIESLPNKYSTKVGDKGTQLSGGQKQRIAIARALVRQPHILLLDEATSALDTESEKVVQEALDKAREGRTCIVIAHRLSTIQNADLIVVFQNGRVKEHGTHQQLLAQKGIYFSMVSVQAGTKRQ

| Activity | Structure (SMILES) |
| --- | --- |
| substrate [+] | [11CH3]n1nnc(-c2ccc3c(c2)c(C2CCN(CCN4CCNC4=O)CC2)cn3-c2ccc(F)cc2)n1 |
| substrate [+] | [11CH3]n1cc(-c2ccc3c(c2)c(C2CCN(CCN4CCNC4=O)CC2)cn3-c2ccc(F)cc2)nn1 |

Source: ChEMBL document CHEMBL2074428, “New alpha(1)-adrenoceptor antagonists derived from the antipsychotic sertindole - carbon-11 labelling and pet examination of brain uptake in the cynomolgus monkey” (Nucl Med Biol, 2004)
